Results on eight molecules are retold here after patent publication US9096615B2, “Bridged bicyclic amino thiazine dioxide compounds as inhibitors of beta-secretase and methods of use thereof” (AMGEN INC., priority 2013, dated 2015).

Molecules are shown by their SMILES.

In series [1] the target is BACE1 (Homo sapiens, UniProt P56817). In words: In vitro enzymatic BACE FRET assay. The class given is biochemical. Particulars: average IC50; read-out: BACE1 Enzyme assay IC50. The method, boiled down:
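Fluorescence (excitation 488 nm, […]) from cleavage of quenched peptide substrate (50 nM), reaction run 1 h after 1 h enzyme–inhibitor pre-incubation, then neutralised with Tris. Conditions: 0.2 nM enzyme, pH 4.2 acetate 0.05 M, 10% DMSO final, 100 uM genapol.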

In series [2] the test system is Aβ40 in conditioned medium of cells stably expressing Amyloid Precursor Protein (APP). In words: In vitro BACE cell-based assay (HEK cell assay, Aβ40 sandwich ELISA). Particulars: Homo sapiens, HEK293; average IC50; read-out: BACE1 cell assay IC50. Put shortly: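 IC50 was derived from percent-of-control Aβ40 against concentration, with Aβ40 quantified by time-resolved fluorescence ELISA (pAb40/6E10-biotin, 4 °C incubations). Supernatants were sampled after 24 h of compound exposure (10 points, starting 100 or 10 μM, 0.1% DMSO) of cells stably expressing APP.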
(ELISA stands for enzyme-linked immunosorbent assay.)

Series [3] addresses T1, human Bace2 protein (Homo sapiens, UniProt Q9Y5Z0).
T1 construct: V5 (C); 6-His (C)
T1 sequence (Q9Y5Z0 63-518): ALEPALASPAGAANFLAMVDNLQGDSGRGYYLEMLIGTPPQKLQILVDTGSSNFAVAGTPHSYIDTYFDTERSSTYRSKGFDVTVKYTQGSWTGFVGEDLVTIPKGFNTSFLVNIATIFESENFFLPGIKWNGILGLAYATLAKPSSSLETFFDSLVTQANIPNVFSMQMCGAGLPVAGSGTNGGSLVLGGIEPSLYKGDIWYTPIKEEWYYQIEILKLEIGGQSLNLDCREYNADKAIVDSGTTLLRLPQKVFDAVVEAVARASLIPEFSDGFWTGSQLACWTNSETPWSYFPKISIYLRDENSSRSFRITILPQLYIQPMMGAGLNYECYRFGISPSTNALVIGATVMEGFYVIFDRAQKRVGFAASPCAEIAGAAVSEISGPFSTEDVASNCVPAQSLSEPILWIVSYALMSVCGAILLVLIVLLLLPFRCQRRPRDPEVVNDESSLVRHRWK
In words: In vitro enzymatic BACE2 FRET assay. The class given is biochemical. The conditions noted are these: average IC50; read-out: BACE2 Enzyme assay IC50. On the procedure:
In Vitro Enzymatic BACE2 FRET (Fluorescence Resonance Energy Transfer) Assay
Enzyme Assay Data in the Table 3
The assay buffer used in this screen is 0.05 M acetate, pH 4.2, 10% DMSO final, 100 uM genapol (which is a nonionic detergent, below its Critical Micelle Concentration). The Beta Secretase2 enzyme (human Bace2 protein with C-terminal V5 and 6-His tag; 0.2 nM) is pre-incubated for one hour with inhibitors, typically in about 1 uL of DMSO according to a serial dilution, are added thereto. This assay is effectively started by the addition of FRET substrate (50 nM) and the combination is incubated for one hour. Final assay concentration of about 0.64 nM. The FRET assay is terminated with by addition of Tris buffer, which raises the pH to neutrality, and the fluorescence is determined. The FRET substrate is a peptide with commercially available fluorophore and quencher, on opposite sides of the BACE cleavage site. Proteolytic cleavage of the FRET substrate releases quenching of fluorescence (excitation 488 nm and […]).

Series [4] has as its target T2, Cathepsin D (Cat D) (Homo sapiens, UniProt P07339).
T2 construct: made in house; host or cells: CHO cells
In words: In vitro enzymatic Cathepsin D (Cat D) FRET assay. The class given is biochemical. The conditions noted are these: average IC50; first procedure; read-out: CatD IC50. The method, boiled down: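 Fluorescence (500 nm excitation, 580 nm emission) was measured after Tris quench of a 1 h cleavage of 20 nM quenched peptide substrate. Before that, 9 nM CHO-expressed human Cat D sat with compound for 1 h at pH 3.5 (0.05 M citrate, 5 mM CHAPS, 10% DMSO final).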

The test system of series [5] is rat. The conditions noted are these: higher compound dose given for three months; cited from earlier work.
The test system of series [6] is Aβ in lumbar CSF. The conditions noted are these: cited from earlier work.

Sequence of BACE1 (P56817 46-501, species assumed): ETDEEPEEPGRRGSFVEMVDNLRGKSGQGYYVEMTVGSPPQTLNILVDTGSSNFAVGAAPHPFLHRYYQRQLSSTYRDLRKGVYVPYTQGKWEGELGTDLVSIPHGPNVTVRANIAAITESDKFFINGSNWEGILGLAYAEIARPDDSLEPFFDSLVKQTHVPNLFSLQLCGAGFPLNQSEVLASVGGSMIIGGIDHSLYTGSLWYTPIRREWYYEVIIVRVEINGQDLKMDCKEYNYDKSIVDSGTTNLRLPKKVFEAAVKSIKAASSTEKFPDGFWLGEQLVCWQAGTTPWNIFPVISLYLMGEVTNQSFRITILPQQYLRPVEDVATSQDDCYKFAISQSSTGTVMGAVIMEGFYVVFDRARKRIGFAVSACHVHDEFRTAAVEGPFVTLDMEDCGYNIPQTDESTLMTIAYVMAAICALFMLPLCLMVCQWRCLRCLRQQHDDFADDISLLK
T2 sequence (P07339 65-412, species assumed): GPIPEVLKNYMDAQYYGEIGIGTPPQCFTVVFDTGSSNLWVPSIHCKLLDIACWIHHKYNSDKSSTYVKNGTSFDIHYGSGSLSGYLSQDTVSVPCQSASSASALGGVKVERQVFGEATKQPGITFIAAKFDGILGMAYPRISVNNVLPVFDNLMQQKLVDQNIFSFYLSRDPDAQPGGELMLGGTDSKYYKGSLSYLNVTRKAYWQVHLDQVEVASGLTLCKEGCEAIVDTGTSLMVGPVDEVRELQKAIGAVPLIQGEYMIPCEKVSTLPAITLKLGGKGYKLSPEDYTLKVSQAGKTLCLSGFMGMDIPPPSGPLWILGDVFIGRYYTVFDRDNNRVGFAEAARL

The IC50 is the concentration needed to halve the response being measured. Turning to `C[C@]1(c2cc(Nc3nccc4cc(C#N)cnc34)ccc2F)N=C(N)[C@@]2(C)CC[C@@H]1S2(=O)=O` [Example 84, 8-((3-((1S,2R,5R)-4-amino-2,5-dimethyl-8,8-dioxido-8-thia-3-azabicyclo[3.2.1]oct-3-en-2-yl)-4-fluorophenyl)amino)-1,7-naphthyridine-3-carbonitrile], the IC50 in series [1] was 0.002 µM; in series [2] it was 0.003 µM; in series [3], 0.002 µM; in series [4] it was above 118 µM.
With `C[C@]12CC[C@H]([C@@](C)(c3cc(Nc4nccc5cc(C#N)cnc45)ccc3F)N=C1N)S2(=O)=O` [Example 85, 8-((3-((1R,2R,5S)-4-amino-2,5-dimethyl-8,8-dioxido-8-thia-3-azabicyclo[3.2.1]oct-3-en-2-yl)-4-fluorophenyl)amino)-1,7-naphthyridine-3-carbonitrile], the IC50 stood at 0.013 µM in series [1], 0.011 µM in series [2], 0.024 µM in series [3] and 1450 µM in series [4].
The corresponding values for `Cc1cc(Cl)cnc1C(=O)Nc1ccc(F)c([C@@]2(C)N=C(N)[C@]3(CF)CC[C@H]2S3(=O)=O)c1` [Example 89, N-(3-((1R,2R,5S)-4-amino-5-(fluoromethyl)-2-methyl-8,8-dioxido-8-thia-3-azabicyclo[3.2.1]oct-3-en-2-yl)-4-fluorophenyl)-5-chloro-3-methyl-2-pyridinecarboxamide] are 0.016 µM, 0.053 µM, 0.006 µM and 1550 µM.
The corresponding values for `C[C@]1(c2cc(Nc3nccc4nc(OCC(F)(F)F)cnc34)ccc2F)N=C(N)[C@@]2(CF)CC[C@@H]1S2(=O)=O` [Example 112, N-(3-((1S,2R,5R)-4-amino-5-(fluoromethyl)-2-methyl-8,8-dioxido-8-thia-3-azabicyclo[3.2.1]oct-3-en-2-yl)-4-fluorophenyl)-2-(2,2,2-trifluoroethoxy)pyrido[3,4-b]pyrazin-5-amine] are 0.008 µM, 0.188 µM, 0.058 µM and 1310 µM.
For `CC#CCOc1ccc(C(=O)Nc2ccc(F)c([C@@]3(C)N=C(N)[C@]4(C)CC[C@H]3S4(=O)=O)c2)c(F)c1` [Example 129, N-(3-((1R,2R,5S)-4-amino-2,5-dimethyl-8,8-dioxido-8-thia-3-azabicyclo[3.2.1]oct-3-en-2-yl)-4-fluorophenyl)-4-(2-butyn-1-yloxy)-2-fluorobenzamide], in that order: 0.061 µM, 0.044 µM, 7 µM and 348 µM.
`C[C@]1(c2cc(Nc3ncnc4cc(OCC5CC5)cnc34)ccc2F)N=C(N)[C@@]2(C)CC[C@@H]1S2(=O)=O` [Example 139, N-(3-((1S,2R,5R)-4-amino-2,5-dimethyl-8,8-dioxido-8-thia-3-azabicyclo[3.2.1]oct-3-en-2-yl)-4-fluorophenyl)-7-(cyclopropylmethoxy)pyrido[3,2-d]pyrimidin-4-amine]: the IC50 in series [1] came out at 0.005 µM; in series [2] it was 0.005 µM; in series [3] it was 0.067 µM; in series [4] it was 1280 µM.
As to `COCCOc1cnc2c(Nc3ccc(F)c([C@@]4(C)N=C(N)[C@@]5(C)CC[C@@H]4S5(=O)=O)c3)nccc2n1` [Example 145, N-(3-((1S,2R,5R)-4-amino-2,5-dimethyl-8,8-dioxido-8-thia-3-azabicyclo[3.2.1]oct-3-en-2-yl)-4-fluorophenyl)-2-(2-methoxyethoxy)pyrido[3,4-b]pyrazin-5-amine], the IC50 in series [1] was determined as 0.003 µM; in series [2], 0.002 µM; in series [3] it was 0.065 µM; in series [4] it was 1980 µM.
On to `C[C@@]1(c2cc(-c3cncnc3)c(F)cc2F)CCSC(N)=N1` [LY2811376, (S)-4-(2,4-difluoro-5-pyrimidin-5-yl-phenyl)-4-methyl-5,6-dihydro-4H-[1,3]thiazin-2-ylamine], for which the “rat toxicology finding in the eye” value in series [5] is “damaged the pigment epithelium of the rat's eye”. Besides, in series [6] (after oral dosing of 30 or 90 mg), the “Aβ reductions in lumbar CSF” value was “Prominent and long-lasting Aβ reductions”. In addition, the safety and tolerability entry in series [6] (healthy volunteers) was “safe and well tolerated”.
